Reference: patent US9790209B2, “Kinase inhibitors” (Respivert Limited, priority 2012, dated 2017)

How the values were obtained:
[1] = test system: TNBS-induced colitis in mice; assay: TNBS-induced colitis in mice; type: in vivo; design: Ulcer grade / LP inflammation: scale not given here; conditions: Experiment 1, 2.5 mg/kg oral BID, 2 days
Protocol: On Day 0 of the study TNBS (200 μL) is administered intra-colonically via a plastic catheter followed by BID dosing of the vehicle, reference or test compound for 2 or 4 days. During the study animals are weighed every day and stool observations are made and recorded as a score, based on stool consistency. At the time of sacrifice on Day 2 (or Day 4) the large intestine is removed and the length and weight recorded. Sections of the colon are taken for either MPO analysis to determine neutrophil infiltration or for histopathology involving scoring to determine disease severity.

PBMCs [2] = assay: LPS-induced TNFα/IL-8 release in PBMC cells; type: cell-based; conditions: Homo sapiens, LPS-stimulated PBMCs, IL-8, read-out: IC50 Values for Inhibition of Cytokine Release PBMCs IL-8
Protocol: Peripheral blood mononuclear cells (PBMCs) from healthy subjects are separated from whole blood using a density gradient (Lymphoprep, Axis-Shield Healthcare). The PBMCs are seeded in 96 well plates and treated with compounds at the desired concentration for 2 hours before addition of 1 ng/mL LPS (Escherichia Coli 0111:B4 from Sigma Aldrich) for 24 hours under normal tissue culture conditions (37° C., 5% CO2). The supernatant is harvested for determination of IL-8 and TNFα concentrations by sandwich ELISA (Duo-set, R&D systems) and read on the fluorescence microplate reader (Varioskan® Flash, ThermoFisher Scientific). The concentration at 50% inhibition (IC50) of IL-8 and TNFα production is calculated from the dose response curve.

GSK3α = GSK3α (Homo sapiens (Human), UniProt P49840); assay: GSK 3α enzyme inhibition (Method 2), Z-LYTE FRET; type: biochemical
Chain of GSK3α (P49840 whole entry): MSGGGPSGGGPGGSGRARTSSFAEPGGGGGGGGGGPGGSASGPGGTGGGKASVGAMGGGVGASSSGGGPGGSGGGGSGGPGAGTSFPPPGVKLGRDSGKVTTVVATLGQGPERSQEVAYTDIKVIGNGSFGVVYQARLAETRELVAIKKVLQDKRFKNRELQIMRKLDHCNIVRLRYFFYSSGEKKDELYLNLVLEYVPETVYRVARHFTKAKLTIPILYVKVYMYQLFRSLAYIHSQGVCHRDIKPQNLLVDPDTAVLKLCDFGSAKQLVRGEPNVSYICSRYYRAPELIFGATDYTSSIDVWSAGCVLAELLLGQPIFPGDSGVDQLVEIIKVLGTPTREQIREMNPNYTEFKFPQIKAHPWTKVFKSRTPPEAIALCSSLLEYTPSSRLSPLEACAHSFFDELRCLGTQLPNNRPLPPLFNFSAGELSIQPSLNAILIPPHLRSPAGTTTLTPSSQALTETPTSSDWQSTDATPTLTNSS
Protocol: (§1) The enzyme inhibitory activities of compounds disclosed herein are determined by FRET using synthetic peptides labelled with both donor and acceptor fluorophores (Z-LYTE, Invitrogen Ltd., Paisley, UK).
The inhibitory activities of compounds of the invention against the GSK 3α enzyme isoform (Invitrogen), are evaluated by determining the level of activation/phosphorylation of the target peptide. The GSK3-α protein (500 ng/mL, 2.5 μL) is mixed with the test compound (2.5 μL at either 4 μg/mL, 0.4 μg/mL, 0.04 μg/mL, or 0.004 μg/mL) for 2 hr at RT. The FRET peptide (8 μM, 2.5 μL), which is a phosphorylation target for GSK3α, and ATP (40 μM, 2.5 μL) are then added to the enzyme/compound mixture and the resulting mixture incubated for 1 hr. Development reagent (protease, 5 μL) is added for 1 hr prior to detection in a fluorescence microplate reader (Varioskan® Flash, ThermoFisher Scientific).
(§2) In all cases, the site-specific protease cleaves non-phosphorylated peptide only and eliminates the FRET signal. Phosphorylation levels of each reaction are calculated using the ratio of coumarin emission (donor) over fluorescein emission (acceptor), for which high ratios indicate high phosphorylation and low ratios indicate low phosphorylation levels. The percentage inhibition of each reaction is calculated relative to non-inhibited control and the 50% inhibitory concentration (IC50 value) is then calculated from the concentration-response curve.
This method follows the same steps as Method 1 above, but utilises a shorter period of mixing of the test compound (105 minutes instead of 2 hours) with the GSK3-α protein.

PBMCs [3] = assay: IL-2 and IFN gamma release in CD3/CD28 stimulated PBMC cells; type: cell-based; conditions: Homo sapiens
Protocol: PBMCs from healthy subjects are separated from whole blood using a density gradient (Lymphoprep, Axis-Shield Healthcare). Cells are added to a 96 well plate pre-coated with a mixture of CD3/CD38 monoclonal antibodies (0.3 μg/mL eBioscience and 3 μg/mL BD Pharmingen respectively). Compound at the desired concentration is then added to the wells and the plate left for 3 days under normal tissue culture conditions. Supernatants are harvested and IL-2 and IFN gamma release determined by Sandwich ELISA (Duo-set, R&D System). The IC50 is determined from the dose response curve.

c-Src = c-Src (Homo sapiens (Human), UniProt P12931); assay: c-Src enzyme inhibition, Z-LYTE FRET; type: biochemical
Chain of c-Src (P12931 whole entry, looked up): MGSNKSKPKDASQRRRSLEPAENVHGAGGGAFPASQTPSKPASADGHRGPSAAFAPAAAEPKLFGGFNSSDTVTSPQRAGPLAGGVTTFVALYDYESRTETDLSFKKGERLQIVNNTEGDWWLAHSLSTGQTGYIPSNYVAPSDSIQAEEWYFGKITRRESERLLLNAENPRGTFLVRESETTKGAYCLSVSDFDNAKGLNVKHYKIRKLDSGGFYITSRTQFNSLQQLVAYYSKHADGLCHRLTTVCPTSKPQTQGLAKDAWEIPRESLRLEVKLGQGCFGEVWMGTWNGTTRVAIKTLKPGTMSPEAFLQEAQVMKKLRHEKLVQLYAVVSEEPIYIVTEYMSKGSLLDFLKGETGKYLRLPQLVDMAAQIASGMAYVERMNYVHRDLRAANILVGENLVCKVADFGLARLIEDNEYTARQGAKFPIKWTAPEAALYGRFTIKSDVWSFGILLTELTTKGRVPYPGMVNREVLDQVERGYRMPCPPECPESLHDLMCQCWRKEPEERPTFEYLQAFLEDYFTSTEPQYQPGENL
Protocol: as §1
(§3) The inhibitory activities of compounds of the invention against c-Src and Syk enzymes (Invitrogen), are evaluated in a similar fashion to that described hereinabove. The relevant enzyme (3000 ng/mL or 2000 ng/mL respectively, 2.5 μL) is incubated with the test compound (either 4 μg/mL, 0.4 μg/mL, 0.04 μg/mL, or 0.004 μg/mL, 2.5 μL each) for 2 hr at RT. The FRET peptides (8 μM. 2.5 μL), and appropriate ATP solutions (2.5 μL, 800 μM for c-Src, and 60 μM ATP for Syk) are then added to the enzymes/compound mixtures and incubated for 1 hr. Development reagent (protease, 5 μL) is added for 1 hr prior to detection in a fluorescence microplate reader (Varioskan® Flash, ThermoFisher Scientific).
as §2

Syk = Syk (Homo sapiens (Human), UniProt P43405); assay: Syk enzyme inhibition, Z-LYTE FRET; type: biochemical
Protocol: as §1, §3, §2

p38 MAPKα = p38 MAPKα (Homo sapiens (Human), UniProt Q16539); assay: p38 MAPKα enzyme inhibition (Method 2), Z-LYTE FRET; type: biochemical
Chain of p38 MAPKα (Q16539 whole entry): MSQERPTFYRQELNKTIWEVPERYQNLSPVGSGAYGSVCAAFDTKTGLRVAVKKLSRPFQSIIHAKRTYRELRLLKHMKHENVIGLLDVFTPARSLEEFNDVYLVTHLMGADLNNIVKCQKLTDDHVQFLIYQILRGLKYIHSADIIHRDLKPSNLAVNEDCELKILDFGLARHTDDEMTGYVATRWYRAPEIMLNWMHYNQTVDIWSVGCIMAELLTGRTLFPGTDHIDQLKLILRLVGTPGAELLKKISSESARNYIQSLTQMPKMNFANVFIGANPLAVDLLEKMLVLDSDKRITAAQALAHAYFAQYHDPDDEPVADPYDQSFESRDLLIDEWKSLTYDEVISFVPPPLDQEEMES
Protocol: as §1
The inhibitory activities of test compounds against the p38 MAPKα isoform (MAPK14: Invitrogen), are evaluated indirectly by determining the level of activation/phosphorylation of the down-stream molecule, MAPKAP-K2. The p38 MAPKα protein (80 ng/mL, 2.5 μL) is mixed with the test compound (2.5 μL of either 4 μg/mL, 0.4 μg/mL, 0.04 μg/mL or 0.004 μg/mL) for 2 hr at RT. […] The mixture is incubated for 1 hr at RT. Development reagent (protease, […]) is added for 1 hr prior to detection in a fluorescence microplate reader (Varioskan® Flash, ThermoFisher Scientific).
This method follows the same steps as Method 1 above, but utilises a higher concentration of the p38 MAPKα protein (2.5 μL of 200 ng/mL protein instead of 2.5 μL of 80 ng/mL protein) for mixing with the test compound.
as §2

[4] = IL-2, read-out: IC50 Values for Inhibition of Cytokine Release PBMCs IL-2

SMILES	IC50 (GSK3α)	IC50 (PBMCs [2])	further results
CCCC1O[C@@H]2C[C@H]3[C@@H]4CCC5=CC(=O)C=C[C@]5(C)[C@H]4[C@@H](O)C[C@]3(C)[C@]2(C(=O)CO)O1 (stereo partly shown) [Budesonide, reference compound]	–	–	LP inflammation ([1]; TNBS + Vehicle 3.9 ± 0.3): 2.5 ± 0.4; Ulcer grade ([1]; TNBS + Vehicle 4.0 ± 0.5): 2.9 ± 0.6
C#CC(C)(C)c1cc(NC(=O)Nc2ccc(Oc3ccnc(Nc4cc(OC)cc(C(=O)NCCN5CCOCC5)c4)n3)c3ccccc23)n(-c2ccc(C)cc2)n1 [Example 4, 3-Methoxy-5-((4-((4-(3-(3-(2-methylbut-3-yn-2-yl)-1-(p-tolyl)-1H-pyrazol-5-yl)ureido)-naphthalen-1-yl)oxy)pyrimidin-2-yl)amino)-N-(2-morpholinoethyl)benzamide]	539 nM	0.5 nM	–
C#CC(C)(C)c1cc(NC(=O)Nc2ccc(Oc3ccnc(Nc4cccc(OCCN5CCOCC5)c4)n3)c3ccccc23)n(-c2ccc(C)cc2)n1 [Example 5, 1-(3-(2-Methylbut-3-yn-2-yl)-1-(p-tolyl)-1H-pyrazol-5-yl)-3-(4-((2-((3-(2-morpholinoethoxy)phenyl)amino)pyrimidin-4-yl)oxy)naphthalen-1-yl)urea]	602 nM	1 nM	–
C#CC(C)(C)c1cc(NC(=O)Nc2ccc(Oc3ccnc(Nc4cccc(OCCN(C)C)c4)n3)c3ccccc23)n(-c2ccc(C)cc2)n1 [Example 6, 1-(4-((2-((3-(2-(Dimethylamino)ethoxy)phenyl)amino)pyrimidin-4-yl)oxy)naphthalen-1-yl)-3-(3-(2-methylbut-3-yn-2-yl)-1-(p-tolyl)-1H-pyrazol-5-yl)urea]	243 nM	0.6 nM	–
C#CC(C)(C)c1cc(NC(=O)Nc2ccc(Oc3ccnc(Nc4ccccc4)c3)c3ccccc23)n(-c2ccc(C)cc2)n1 [Example 7, 1-(3-(2-Methylbut-3-yn-2-yl)-1-(p-tolyl)-1H-pyrazol-5-yl)-3-(4-((2-(phenylamino)pyridin-4-yl)oxy)naphthalen-1-yl)urea]	> 10000 nM	4 nM	IC50 (PBMCs [3]; IFNγ, read-out: IC50 Values for Inhibition of Cytokine Release PBMCs IFNγ): 21.8 nM; IC50 (PBMCs [3]; [4]): 139 nM; IC50 (c-Src): 81 nM; IC50 (Syk): 185 nM; IC50 (p38 MAPKα): 271 nM
C#CC(C)(C)c1cc(NC(=O)Nc2ccc(Oc3ccnc(Nc4cc(OC)cc(OCCN5CCOCC5)c4)n3)c3ccccc23)n(-c2ccc(C)cc2)n1 [Example 8, 1-(4-((2-((3-Methoxy-5-(2-morpholinoethoxy)phenyl)amino)pyrimidin-4-yl)oxy)-naphthalen-1-yl)-3-(3-(2-methylbut-3-yn-2-yl)-1-(p-tolyl)-1H-pyrazol-5-yl)urea]	2570 nM	1.4 nM	IC50 (c-Src): 22 nM; IC50 (Syk): 31 nM

Continued, in another order:

IC50 (GSK3α)	SMILES	IC50 (PBMCs [2])	further results
> 10000 nM	C#CC(C)(C)c1cc(NC(=O)Nc2ccc(Oc3ccnc(Nc4cc(C)c5[nH]ncc5c4)n3)c(Cl)c2Cl)n(-c2ccc(C)cc2)n1 [Example 9, 1-(2,3-Dichloro-4-((2-((7-methyl-1H-indazol-5-yl)amino)pyrimidin-4-yl)oxy)phenyl)-3-(3-(2-methylbut-3-yn-2-yl)-1-(p-tolyl)-1H-pyrazol-5-yl)urea]	7.6 nM	–
1760 nM	C#CC(C)(C)c1cc(NC(=O)Nc2ccc(Oc3ccnc(Nc4cccc(OCCN(C)C)n4)n3)c3ccccc23)n(-c2ccc(C)cc2)n1 [Example 10, 1-(4-((2-((6-(2-(Dimethylamino)ethoxy)pyridin-2-yl)amino)pyrimidin-4-yl)oxy)naphthalen-1-yl)-3-(3-(2-methylbut-3-yn-2-yl)-1-(p-tolyl)-1H-pyrazol-5-yl)urea]	1.7 nM	IC50 (PBMCs [3]; [4]): 7.1 nM; IC50 (p38 MAPKα): 46 nM
> 10000 nM	C#CC(C)(C)c1cc(NC(=O)Nc2ccc(Oc3ccnc(Nc4cc(OCCN(C)C)ccn4)n3)c3ccccc23)n(-c2ccc(C)cc2)n1 [Example 11, 1-(4-((2-((4-(2-(Dimethylamino)ethoxy)pyridin-2-yl)amino)pyrimidin-4-yl)oxy)naphthalen-1-yl)-3-(3-(2-methylbut-3-yn-2-yl)-1-(p-tolyl)-1H-pyrazol-5-yl)urea]	10.8 nM	–
> 10000 nM	C#CC(C)(C)c1cc(NC(=O)Nc2ccc(Oc3ccnc(Nc4cccc(OCCN5CCOCC5)n4)n3)c3ccccc23)n(-c2ccc(C)cc2)n1 [Example 16, 1-(3-(2-Methylbut-3-yn-2-yl)-1-(p-tolyl)-1H-pyrazol-5-yl)-3-(4-((2-((6-(2-morpholinoethoxy)pyridin-2-yl)amino)pyrimidin-4-yl)oxy)naphthalen-1-yl)urea]	17.7 nM	IC50 (c-Src): 21 nM; IC50 (Syk): 348 nM; IC50 (p38 MAPKα): 148 nM
> 10000 nM	C#CC(C)(C)c1cc(NC(=O)Nc2ccc(Oc3ccnc(Nc4cccc(OCCOCCOCCOC)n4)n3)c3ccccc23)n(-c2ccc(C)cc2)n1 [Example 17, 1-(4-((2-((6-(2-(2-(2-Methoxyethoxy)ethoxy)ethoxy)pyridin-2-yl)amino)pyrimidin-4-yl)oxy)naphthalen-1-yl)-3-(3-(2-methylbut-3-yn-2-yl)-1-(p-tolyl)-1H-pyrazol-5-yl)urea]	30.4 nM	–
